For test [1], the system named is K. pneumoniae ATCC BAA-1705 (KPM1123), KPC-2. As to the kind of experiment: MIC, reference strain. The test is classed as cell-based. To be noted: Klebsiella pneumoniae, ATCCBAA1705; KPC-2; BLI at the fixed concentration in brackets; read-out: MIC. The protocol:
(§1) Other BL/BLI combinations were tested at their recommended BLI concentrations. MIC values for the partner antibiotics and BLIs alone were also determined (Table 2; Table S1). All investigational and marketed BLIs enhanced the potency of antibiotics according to their spectrum of inhibition. MIC values against CLSI-approved QC strains were within acceptable ranges for drugs and combinations tested (Table 3).
(§2) Isolates were tested for antimicrobial susceptibility using the broth microdilution methodology per CLSI M07 (2018) guidelines ([40]). JMI Laboratories produced frozen-form 96-well panels with cation-adjusted Mueller-Hinton broth as the testing medium. Current CLSI quality assurance practices were followed when performing the susceptibility tests. MIC values were validated by concurrently testing the following CLSI-recommended ([27]) QC reference strains: E. coli NCTC 13353 (CTX-M-15), Klebsiella pneumoniae ATCC BAA-2814 (KPC-3), Klebsiella pneumoniae ATCC BAA-1705 (KPC-2), and K. pneumoniae ATCC 700603 (SHV-18). The inoculum density during susceptibility testing was monitored by bacterial colony counts. Where applicable, QC ranges for tested reference strains were those approved or published by the CLSI ([27]).

For test [2], the system named is K. pneumoniae ATCC BAA-2814 (KP1074), KPC-3. Put plainly: MIC, reference strain. The test is classed as cell-based. To be noted: Klebsiella pneumoniae, ATCCBAA2814; KPC-3; BLI at the fixed concentration in brackets; read-out: MIC. The protocol: as §1, §2
Test [3] concerns Klebsiella pneumoniae ATCC 700603 (KPM2881), SHV-18. As to the kind of experiment: MIC, reference strain. Conditions: Klebsiella pneumoniae, ATCC700603; SHV-18; BLI at the fixed concentration in brackets; read-out: MIC. The test is classed as cell-based. The protocol:
as §1, §2

Test [4] concerns E. coli CDC 0069 (EC1106), NDM-1. Put plainly: MIC, reference strain. To be noted: Escherichia coli, BLI at the fixed concentration in brackets, read-out: MIC. The test is classed as cell-based. Here is the method: as §1, §2
For test [5], the system named is K. pneumoniae CDC 0135 (KP1291), VIM-1. As to the kind of experiment: MIC, reference strain. To be noted: Klebsiella pneumoniae, BLI at the fixed concentration in brackets, read-out: MIC. The test is classed as cell-based. The protocol:
as §1, §2

Test [6] has as its system Escherichia coli NCTC 13353 (ECM7514), CTX-M-15. As to the kind of experiment: MIC, reference strain. The test is classed as cell-based. To be noted: Escherichia coli, NCTC13353. Here is the method:
as §1
as §2, with “([27]). Meropenem was purchased from Carbosynth; ceftolozane was synthesized at Acme Bioscience, Palo Alto, CA, USA; all other antibiotics were from Sigma Aldrich. Xeruborbactam was synthesized at Qpex Biopharma, San Diego, CA, USA. Avibactam was purchased from eNovation, Chemicals LLC, Bridgewater, NJ, USA. Vaborbactam was synthesized at The Medicines Company, San Diego, CA. Relebactam, taniborbactam, and […] were synthesized at Acme Bioscience.” for “([27]).”

For test [7], the target named is NDM-1 (Klebsiella pneumoniae, UniProt C7C422). As to the kind of experiment: biochemical. The protocol:
(§3) The majority of purified β-lactamase enzymes used in the study were either expressed and purified internally ([35]) or obtained from Emerald Biostructures (Bainbridge Island, WA, USA). L1 enzyme was purified as described in reference ([36]).
(§4) Enzymes were mixed with BLIs at concentrations varying from 160 to 0.0027 µM in 50-mM Na-phosphate pH7.0, 0.1-mg/mL bovide serum albumin (BSA) (buffer A; 20-µM ZnCl2 was also added for all metalloenzymes) and incubated for 10 minutes at 37°C. Nitrocefin (50 µM) (10 µM for SHV-12) or 100 µM of imipenem (prewarmed at 37°C for 10 minutes) was added, and substrate cleavage profiles were recorded at 37°C at 490 nm every 10 seconds for 10 minutes or at 294 nm every 30 seconds for 1 hour for nitrocefin and imipenem, respectively. […] Ki app values (Ki for metalloenzymes) were calculated by the method of Waley ([37]).

Test [8] deals with P. aeruginosa BAA-3197 (PA5257), KPC-2. As to the kind of experiment: MIC, reference strain. To be noted: Pseudomonas aeruginosa, BAA3197; KPC-2; BLI at the fixed concentration in brackets; read-out: MIC. The test is classed as cell-based.
The target in test [9] is IMP-1 (Serratia marcescens, UniProt P52699). As to the kind of experiment: Ki of metallo-β-lactamase inhibition, purified enzyme. The test is classed as biochemical. The protocol: as §3, §4
Chain of IMP-1 (P52699 19-246 limits assumed): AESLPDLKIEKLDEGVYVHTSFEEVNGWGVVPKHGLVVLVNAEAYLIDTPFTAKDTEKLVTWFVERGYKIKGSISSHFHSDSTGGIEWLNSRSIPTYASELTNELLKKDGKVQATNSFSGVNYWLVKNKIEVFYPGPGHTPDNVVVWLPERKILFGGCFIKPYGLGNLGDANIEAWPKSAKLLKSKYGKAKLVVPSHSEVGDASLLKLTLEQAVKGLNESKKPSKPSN
Test [10] addresses VIM-1 (Pseudomonas aeruginosa, UniProt A0A0F7KYQ8). Described as above. The test is classed as biochemical. Conditions: 10-minute preincubation; nitrocefin substrate. Here is the method: as §3, §4
Test [11] addresses CTX-M-14 (Escherichia coli, UniProt Q9L5C7). Put plainly: Ki app of β-lactamase inhibition, purified enzyme. The test is classed as biochemical. To be noted: 10-minute preincubation; nitrocefin substrate. Here is the method: as §3, §4
For test [12], the target named is CTX-M-15 (Escherichia coli, UniProt Q9EXV5). As to the kind of experiment: Ki app of β-lactamase inhibition, purified enzyme. The test is classed as biochemical. Conditions: 10-minute preincubation; nitrocefin substrate. Here is the method:
as §3, §4

Test [13] concerns the target SHV-12 (Klebsiella pneumoniae, UniProt P0AD64, E235K/G234S/L31Q). Put plainly: Ki app of β-lactamase inhibition, purified enzyme. The test is classed as biochemical. The protocol:
as §3, §4

Test [14] has as its target P99 (Enterobacter cloacae, UniProt P05364). As to the kind of experiment: Ki app of β-lactamase inhibition, purified enzyme. The test is classed as biochemical. The protocol: as §3, §4
Test [15] has as its system ESBL-producing and carbapenem-resistant Enterobacterales (All, N = 1028). Put plainly: organism not typed. The test is classed as cell-based. To be noted: All (N = 1028); xeruborbactam and vaborbactam fixed 8 mg/L, all other BLIs 4 mg/L.
The test system of test [16] is carbapenem-resistant Enterobacterales (subset of 507 isolates). As to the kind of experiment: organism not typed. The test is classed as cell-based. To be noted: xeruborbactam and vaborbactam fixed 8 mg/L, all other BLIs 4 mg/L.
Test [17] concerns ESBL-producing Enterobacterales. As to the kind of experiment: organism not typed. To be noted: ESBL (N = 521); xeruborbactam and vaborbactam fixed 8 mg/L, all other BLIs 4 mg/L. The test is classed as cell-based.
Test [18] deals with OXA-48 (Klebsiella pneumoniae, UniProt Q6XEC0). Put plainly: Ki app of β-lactamase inhibition, purified enzyme. The test is classed as biochemical, Enterobacterales. To be noted: 10-minute preincubation; nitrocefin substrate. The protocol:
as §3, §4

The target in test [19] is OXA-23 (Acinetobacter baumannii, UniProt Q9L4P2). As to the kind of experiment: Ki app of β-lactamase inhibition, purified enzyme. The test is classed as biochemical. To be noted: 10-minute preincubation; nitrocefin substrate. The protocol:
as §3, §4

Test [20] addresses KPC-2 (Klebsiella pneumoniae, UniProt Q9F663). As to the kind of experiment: Ki app of β-lactamase inhibition, purified enzyme. The test is classed as biochemical. Conditions: 10-minute preincubation; nitrocefin substrate. Here is the method: as §3, §4
Where [21] appears, read: CTX-M-15, BLI at the fixed concentration in brackets, read-out: MIC.
Where [22] appears, read: 10-minute preincubation, nitrocefin substrate, read-out: Ki app.

In brackets after ≈: the same amount, converted by molar mass. Like-named read-outs stand apart in the source and are kept apart here.

Chain of CTX-M-15 (Q9EXV5 entry or part of it): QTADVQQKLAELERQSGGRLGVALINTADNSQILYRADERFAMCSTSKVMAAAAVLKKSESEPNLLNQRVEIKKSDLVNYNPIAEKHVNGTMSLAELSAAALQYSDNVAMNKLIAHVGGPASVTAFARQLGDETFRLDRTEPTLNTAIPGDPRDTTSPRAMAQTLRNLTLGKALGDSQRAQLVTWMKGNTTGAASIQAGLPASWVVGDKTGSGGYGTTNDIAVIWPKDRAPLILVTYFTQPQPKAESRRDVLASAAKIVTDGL
Chain of P99 (P05364 21-381): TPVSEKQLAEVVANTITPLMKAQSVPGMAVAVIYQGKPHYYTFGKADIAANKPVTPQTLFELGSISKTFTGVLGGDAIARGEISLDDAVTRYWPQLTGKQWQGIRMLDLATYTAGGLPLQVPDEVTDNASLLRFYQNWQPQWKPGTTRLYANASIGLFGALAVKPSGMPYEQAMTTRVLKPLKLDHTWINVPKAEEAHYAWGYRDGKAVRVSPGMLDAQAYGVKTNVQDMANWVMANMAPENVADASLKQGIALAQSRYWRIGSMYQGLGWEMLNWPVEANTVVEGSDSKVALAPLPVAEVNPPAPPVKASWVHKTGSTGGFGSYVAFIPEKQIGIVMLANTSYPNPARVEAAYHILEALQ
Chain of NDM-1 (C7C422 29-270 limits assumed): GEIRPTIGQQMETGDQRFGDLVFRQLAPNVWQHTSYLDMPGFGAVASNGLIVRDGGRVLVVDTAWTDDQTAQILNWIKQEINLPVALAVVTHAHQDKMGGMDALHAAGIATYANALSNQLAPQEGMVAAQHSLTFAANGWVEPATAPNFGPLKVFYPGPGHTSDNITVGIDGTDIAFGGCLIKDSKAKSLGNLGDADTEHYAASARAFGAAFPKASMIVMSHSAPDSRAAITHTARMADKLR
Chain of SHV-12 (P0AD64 22-286 L31Q/G234S/E235K): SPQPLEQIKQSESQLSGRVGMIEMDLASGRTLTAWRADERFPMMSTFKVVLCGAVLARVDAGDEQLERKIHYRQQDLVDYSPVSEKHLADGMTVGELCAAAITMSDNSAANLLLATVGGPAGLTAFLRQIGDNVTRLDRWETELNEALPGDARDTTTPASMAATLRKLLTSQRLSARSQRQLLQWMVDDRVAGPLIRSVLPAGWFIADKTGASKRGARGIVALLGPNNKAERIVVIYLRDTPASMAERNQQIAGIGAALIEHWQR
Chain of CTX-M-14 (Q9L5C7 entry or part of it): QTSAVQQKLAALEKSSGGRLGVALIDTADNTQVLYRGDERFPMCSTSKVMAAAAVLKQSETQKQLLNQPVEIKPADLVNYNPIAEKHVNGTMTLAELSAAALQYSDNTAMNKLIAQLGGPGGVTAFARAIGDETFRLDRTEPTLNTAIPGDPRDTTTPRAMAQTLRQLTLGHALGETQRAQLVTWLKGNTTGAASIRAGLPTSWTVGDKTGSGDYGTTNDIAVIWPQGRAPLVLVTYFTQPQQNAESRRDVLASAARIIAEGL
Chain of OXA-48 (Q6XEC0 23-265 limits assumed): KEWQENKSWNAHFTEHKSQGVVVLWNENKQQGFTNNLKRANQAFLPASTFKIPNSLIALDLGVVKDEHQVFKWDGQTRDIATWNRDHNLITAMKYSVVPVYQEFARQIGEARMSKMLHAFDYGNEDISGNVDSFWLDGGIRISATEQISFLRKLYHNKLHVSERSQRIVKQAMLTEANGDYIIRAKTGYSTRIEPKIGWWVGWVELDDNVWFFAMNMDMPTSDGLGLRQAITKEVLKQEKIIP
Chain of OXA-23 (Q9L4P2 18-273): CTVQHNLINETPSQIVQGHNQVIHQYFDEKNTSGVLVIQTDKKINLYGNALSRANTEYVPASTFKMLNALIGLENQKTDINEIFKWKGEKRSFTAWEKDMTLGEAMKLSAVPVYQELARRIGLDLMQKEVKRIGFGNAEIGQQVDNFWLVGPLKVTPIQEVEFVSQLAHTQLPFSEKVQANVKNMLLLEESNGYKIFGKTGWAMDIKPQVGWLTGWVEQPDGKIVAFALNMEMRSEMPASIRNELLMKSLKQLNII
Chain of KPC-2 (Q9F663 25-293 limits assumed): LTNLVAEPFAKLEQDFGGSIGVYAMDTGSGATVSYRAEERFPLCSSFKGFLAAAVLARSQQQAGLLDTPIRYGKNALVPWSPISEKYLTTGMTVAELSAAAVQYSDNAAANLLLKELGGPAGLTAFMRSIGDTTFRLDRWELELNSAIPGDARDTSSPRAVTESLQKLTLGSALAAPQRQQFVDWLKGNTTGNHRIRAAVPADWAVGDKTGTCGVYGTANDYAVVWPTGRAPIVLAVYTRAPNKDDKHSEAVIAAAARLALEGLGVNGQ

In the case of `NC(=O)[C@@H]1CC[C@@H]2CN1C(=O)N2OS(=O)(=O)O` [Avibactam, avibactam], the MIC in [1] was 16 µg/mL; in test [2] it was 64 µg/mL; in test [3], 32 µg/mL; in test [4] it was 8 µg/mL; in [5], over 64 µg/mL; in test [6] (setting [21]) it was 16 µg/mL. The MIC in test [8] was over 64 µg/mL. The Ki in test [7] was over 160000 nM; in test [9], over 160000 nM; in test [10] it was over 160000 nM; in test [11], 0.41 ± 0.13 nM; in test [12], 0.18 ± 0.08 nM; in test [13], 0.24 ± 0.07 nM. The compound also registered a Ki in test [14] (Ki app) of 10 ± 2 nM.

Turning to `CC(C)(O/N=C(\C(=O)N[C@@H]1C(=O)N2C(C(=O)[O-])=C(C[n+]3ccccc3)CS[C@H]12)c1csc(N)n1)C(=O)O` [CAZ, ceftazidime], the MIC in [1] was 64 µg/mL; in test [2], over 64 µg/mL; in test [3], 16 µg/mL; in test [4] it was over 64 µg/mL; in test [5], over 64 µg/mL; in test [6] (setting [21]), 64 µg/mL. Also, the MIC in test [8] is over 64 µg/mL.

On to `CO/N=C(\C(=O)N[C@@H]1C(=O)N2C(C(=O)O)=C(CSc3nc(=O)c(O)nn3C)CS[C@H]12)c1csc(N)n1` [CRO], for which the MIC50 in test [15], in test [16] (CRE (N = 507)), in [16] (KPC (N = 193)), in [16] (MBL (N = 168)), in test [16] (Non-CP CRE (N = 50)) and in test [16] (OXA-48-like (N = 96)) was over 32 µg/mL in each case. Moreover, the MIC50 in test [17] is given as over 32 µg/mL. The MIC90 in [15], in test [16] (CRE (N = 507)), in test [16] (KPC (N = 193)), in [16] (MBL (N = 168)), in [16] (Non-CP CRE (N = 50)) and in test [16] (OXA-48-like (N = 96)) was over 32 µg/mL each time. In addition, in test [17], the MIC90 is on record as over 32 µg/mL.

Take `CC1=C[C@@H]2CN(C(=O)N2OS(=O)(=O)O)[C@@H]1C(N)=O` [Durlobactam, durlobactam]: the Ki in test [7] is over 160000 nM; in test [9], over 160000 nM; in [10] it was over 160000 nM; in test [18] it was 0.72 ± 0.27 nM; in [11] it was 0.37 ± 0.16 nM; in [19], 94 ± 32 nM. The values for the Ki in [20], in test [12] and in [14] (setting [22]) were 1.7 ± 0.4 nM, 0.21 ± 0.12 nM and 0.17 ± 0.08 nM, respectively.

Regarding `C[C@@H](O)[C@H]1C(=O)N2C(C(=O)O)=C(S[C@@H]3CN[C@H](C(=O)Nc4cccc(C(=O)O)c4)C3)[C@H](C)[C@H]12` [ETP], the MIC50 is given as 4 µg/mL in [15]; over 32 µg/mL in [16] (CRE (N = 507)); over 32 µg/mL in test [16] (KPC (N = 193)); over 32 µg/mL in [16] (MBL (N = 168)); over 32 µg/mL in test [16] (Non-CP CRE (N = 50)); over 32 µg/mL in [16] (OXA-48-like (N = 96)). Further, in [17], the MIC50 is 0.06 µg/mL. In addition, the MIC90 in test [15], in test [16] (CRE (N = 507)), in test [16] (KPC (N = 193)), in test [16] (MBL (N = 168)), in [16] (Non-CP CRE (N = 50)) and in [16] (OXA-48-like (N = 96)) was over 32 µg/mL each time. For the same compound, the MIC90 in test [17] is 0.5 µg/mL.

On to `C[C@@H](O)[C@H]1C(=O)N2C(C(=O)O)=C(SCCN=CN)C[C@H]12` [IMP, imipenem], for which the MIC is 8 µg/mL in test [1]; 64 µg/mL in [2]; 0.06 µg/mL in [3]; 16 µg/mL in test [4]; 8 µg/mL in test [5]; 0.125 µg/mL in [6]. In test [8], the MIC is over 64 µg/mL.

Regarding `O=C(NC1CCNCC1)[C@@H]1CC[C@@H]2CN1C(=O)N2OS(=O)(=O)O` [Relebactam, relebactam], the MIC in test [1], in test [2], in test [3], in test [4], in test [5] and in [6] (setting [21]) was over 64 µg/mL in each case. Further, the MIC in test [8] is over 64 µg/mL. Also, the Ki is over 160000 nM in [7]; over 160000 nM in test [9]; over 160000 nM in test [10]; 10 ± 3 nM in test [11]; 24 ± 1 nM in test [12]; 36 ± 6 nM in test [13]. Also, the Ki in [14] (setting [22]) was found to be 14 ± 2 nM.

On to `Cn1c(N)c(NC(=O)NCCN)c[n+]1CC1=C(C(=O)O)N2C(=O)[C@@H](NC(=O)/C(=N\OC(C)(C)C(=O)[O-])c3nsc(N)n3)[C@H]2SC1` [TOL, ceftolozane], for which the MIC was 64 µg/mL in test [1]; over 64 µg/mL in [2]; 8 µg/mL in [3]; over 64 µg/mL in test [4]; over 64 µg/mL in [5]; over 64 µg/mL in test [6] (setting [21]). The MIC in test [8] was found to be 32 µg/mL (≈ 48 µM).

Regarding `O=C(O)C[C@@H]1CC[C@H](NC(=O)Cc2cccs2)B(O)O1` [Vaborbactam, vaborbactam], the MIC in test [1], in test [2], in test [3], in [4], in test [5] and in test [6] (setting [21]) was over 64 µg/mL throughout. Besides, the minimum inhibitory concentration (MIC) in [8] was over 64 µg/mL. In addition, the Ki in test [9] was over 160000 nM; in test [13] (setting [22]), 21 ± 4 nM.

A word on the MIC: it is the lowest concentration found to suppress growth. What is called MIC50 is the lowest concentration that inhibits either 50% of growth or 50% of the strains tested, depending on the study. By MIC90 is commonly meant the lowest concentration that inhibits either 90% of growth or 90% of the strains tested, depending on the study.

Source of the values: article PMC10648875 (Antimicrobial Agents and Chemotherapy, 2023).
